Assay results reported in article PMC6440969, “Functional and structural similarities of D7 proteins in the independently-evolved salivary secretions of sand flies and mosquitoes” (Scientific Reports, 2019).
Read-outs that look alike come from different tables or passages of the source.

Experiments:
[1] = molecular target: T1, P. papatasi D7 protein AGE83092 (Phlebotomus papatasi, UniProt M1JMQ7); experiment: biochemical; type: binding
T1 construct: made in house; host or cells: E. coli BL21 (DE3) pLysS
Procedure: (§1) For cysteinyl leukotriene experiments, the calorimeter cell was filled with P. papatasi D7 protein AGE83092 (A–C) or P. duboscqi ABI15936 (E–G) at 2 μM in Tris-buffered saline. The syringe contained 20 μM LTC4 (A,E), LTD4 (B,F) and LTE4 (C,G) in the same buffer. Injections (10 µL) were spaced at 300 s intervals. […] The syringe concentration was 50 µM AGE83092 and 100 µM for ABI15936. Heats were recorded on a VP-ITC MicroCalorimeter and data were fit using a single binding site model on the MicroCal software package (Origin 7) for calculation of thermodynamic parameters. Titration curves are representative of at least 3 measurements.
(§2) Proteins were diluted in 20 mM tris pH 7.4, 150 mM NaCl and degassed. […] These were sonicated for 10 minutes in a water bath sonicator and degassed before use. Biogenic amines were dissolved in the same buffer and degassed. Heats were measured with a MicroCal VP-ITC calorimeter (Malvern, United Kingdom) using 10 μl ligand injections over periods of 20 seconds with 300 seconds spacing the injections. The measured heats were integrated and fit to a single-site binding model using the MicroCal Origin software.

P. duboscqi ABI15936 = molecular target: T2, P. duboscqi ABI15936 (Phlebotomus duboscqi, UniProt Q06KA2); experiment: biochemical; type: binding; details: for affinities (1/Ka): range printed for both proteins (AGE83092 and ABI15936) together; for binding of biogenic amines: ITC (Fig. S1)
T2 construct: made in house; host or cells: E. coli BL21 (DE3) pLysS
Procedure: as §1
Figure 7 Binding pocket interactions in ABI15936. (A) Stereoview of bound Triton X-100 with weighted omit electron density (Fo-Fc) contoured at 3 σ covering the ligand. Carbon atoms are colored green and oxygen atoms are colored red (B). […] In the protein, carbon is colored light grey, oxygen is colored red and nitrogen is colored blue. […] The refined position is shown in green and the rotated position in white.
as §2

AnStD7L1 = details: cited from earlier work
AeD7 = test system: AeD7; set-up: method as in PMID 19234127, PMID 21152418; details: cited from earlier work
[2] = ITC, single binding site model, Tris-buffered saline, protein 2 μM (10 µM for U46619), protein prepared with Triton X-100
[3] = ITC, single binding site model, protein prepared with Triton X-100
[4] = ITC, protein prepared without Triton X-100

T1 sequence (M1JMQ7 20-254 limits assumed): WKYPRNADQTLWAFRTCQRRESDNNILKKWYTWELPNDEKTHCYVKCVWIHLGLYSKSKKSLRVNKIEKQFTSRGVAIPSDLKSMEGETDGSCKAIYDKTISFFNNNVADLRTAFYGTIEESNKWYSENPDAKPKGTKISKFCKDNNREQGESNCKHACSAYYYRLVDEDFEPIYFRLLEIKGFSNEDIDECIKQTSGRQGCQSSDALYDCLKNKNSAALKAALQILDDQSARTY
T2 sequence (Q06KA2 20-249 limits assumed): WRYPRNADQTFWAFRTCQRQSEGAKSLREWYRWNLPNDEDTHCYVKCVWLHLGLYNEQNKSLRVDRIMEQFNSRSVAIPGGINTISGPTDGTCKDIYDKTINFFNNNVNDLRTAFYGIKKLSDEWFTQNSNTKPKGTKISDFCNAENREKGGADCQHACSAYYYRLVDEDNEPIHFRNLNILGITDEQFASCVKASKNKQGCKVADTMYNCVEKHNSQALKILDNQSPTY

SMILES | Ka [1] | ΔH ([1]; ITC, single binding site model) | Ka (P. duboscqi ABI15936; [2]) | ΔH (P. duboscqi ABI15936; [3]) | affinities (1/Ka) (P. duboscqi ABI15936; ITC) | binding of biogenic amines (P. duboscqi ABI15936) | other results
CCCCC/C=C\C\C=C/C=C/C=C/[C@@H](SC[C@H](NC(=O)CC[C@H](N)C(=O)O)C(=O)NCC(=O)O)[C@@H](O)CCCC(=O)O [LTC4] | 1.7e+08 M⁻¹ | -43.1 kJ/mol | 3.1e+08 M⁻¹ | -36 kJ/mol | 2 to 6 nM |  | affinities (1/Ka) [1]: 2 to 6 nM; Ka (P. duboscqi ABI15936; [4]): 2.2e+08 M⁻¹; ΔH (P. duboscqi ABI15936; [4]): -41.8 kJ/mol
CCCCC/C=C\C\C=C/C=C/C=C/[C@@H](SC[C@H](N)C(=O)NCC(=O)O)[C@@H](O)CCCC(=O)O [LTD4] |  | -42.7 kJ/mol |  | -37.2 kJ/mol |  |  | Kd ([1]; Ka): 1.75 nM; Kd ([1]; affinities (1/Ka)): 2 to 6 nM; Kd (P. duboscqi ABI15936; Ka): 4.17 nM; Kd (P. duboscqi ABI15936; affinities (1/Ka)): 2 to 6 nM
CCCCC/C=C\C\C=C/C=C/C=C/[C@@H](SC[C@H](N)C(=O)O)[C@@H](O)CCCC(=O)O [LTE4] | 6.3e+07 M⁻¹ | -47.3 kJ/mol | 3.4e+07 M⁻¹ | -29.3 kJ/mol | 16 to 29 nM |  | 
CCCCC[C@H](O)/C=C/[C@@H]1[C@@H](C/C=C\CCCC(=O)O)[C@H]2CO[C@@H]1C2 [U46619] | 1.33e+06 M⁻¹ |  | 780000 M⁻¹ | -48.1 kJ/mol |  |  | binding to AnStD7L1 (AnStD7L1): bound; ΔH [1]: -35.6 kJ/mol; Kd ([1]; read-out: affinity constant): ~750 nM; affinity for AeD7 (AeD7): no affinity; Kd (P. duboscqi ABI15936; ITC, read-out: affinity constant): ~1300 nM
NCCc1c[nH]cn1 [histamine] |  |  |  |  |  | did not bind | binding of biogenic amines [1]: did not bind
NCCc1c[nH]c2ccc(O)cc12 [serotonin] |  |  |  |  |  | did not bind | binding of biogenic amines ([1]; ITC (Fig. S1)): did not bind
